Experimental data: ChEMBL document CHEMBL1201862, “PubChem BioAssay data set” (2004)
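Compound exposure: 48 hours, 5 concentrations, 96-well plates. GI50 marks 50% less growth.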 Activity calls are given as the source filed them. Cut-off read from the data, not from the text of the source: active = GI50 up to about 1.1 µM and inactive = higher. Where a SMILES comes first, the peptide text is derived from it. The star is where a group is joined. Cbz = O=C(OCc1ccccc1)*; NHNH2 = NN*

Legend:
Assay in all cases: NCI tumour cell line growth inhibition, 48 h
[1] = tested on: A549
[2] = tested on: CCRF-CEM
[3] = tested on: DU-145
[4] = tested on: HOP-62
[5] = tested on: MDA-MB-435
[6] = tested on: MOLT-4
[7] = tested on: NCI-H226
[8] = tested on: NCI/ADR-RES
[9] = tested on: SF-539
[10] = tested on: SK-OV-3
[11] = tested on: SW-620
[12] = tested on: U-251
[13] = tested on: UACC-257
[14] = tested on: UACC-62

| Compound | GI50 [1] | GI50 [2] | GI50 [3] | GI50 [4] | GI50 [5] | GI50 [6] | GI50 [7] | GI50 [8] | GI50 [9] | GI50 [10] | GI50 [11] | GI50 [12] | GI50 [13] | GI50 [14] |
| --- | --- | --- | --- | --- | --- | --- | --- | --- | --- | --- | --- | --- | --- | --- |
| COc1cccc(-c2cc(=O)c3cc(N4CCCCC4)ccc3[nH]2)c1 | < 0.0206 µM (active) | < 0.01 µM (active) | 0.0622 µM (active) | < 0.0145 µM (active) | < 0.01 µM (active) | 0.024 µM (active) | 0.0127 µM (active) | 0.02 µM (active) | < 0.01 µM (active) | 0.0316 µM (active) | < 0.0145 µM (active) | < 0.0147 µM (active) | > 100 µM (inactive) | < 0.01 µM (active) |
| CN(C)C(=O)OC1=CC2CCC(C1)N2C (stereo not given) | 70.8 µM (inactive) | 28.8 µM (inactive) | > 100 µM (inactive) | > 100 µM (inactive) | > 100 µM (inactive) | 52.8 µM (inactive) | 0.685 µM (active) | 91.6 µM (inactive) | > 100 µM (inactive) | > 100 µM (inactive) | > 100 µM (inactive) | 87.3 µM (inactive) | > 100 µM (inactive) | > 100 µM (inactive) |
| CCOC(O)(NC(=O)C(C(F)(F)F)C(F)(F)F)C(F)(F)F (stereo not given) | > 100 µM (inactive) | > 100 µM (inactive) |  |  | > 100 µM (inactive) | > 100 µM (inactive) |  | > 100 µM (inactive) | > 100 µM (inactive) |  | > 100 µM (inactive) | > 100 µM (inactive) | > 100 µM (inactive) |  |
| CCCCNC(=O)Nc1c(C(N)=O)c2n(c1C(=O)OCC)CCCCC2 |  | > 100 µM (inactive) | > 100 µM (inactive) | > 100 µM (inactive) | > 100 µM (inactive) | > 100 µM (inactive) | 3.89 µM (inactive) | > 100 µM (inactive) | > 100 µM (inactive) | > 100 µM (inactive) | > 100 µM (inactive) | > 100 µM (inactive) | > 100 µM (inactive) | > 100 µM (inactive) |
| NCCCC[C@H](N)C(=O)Nc1ccc(-c2nc3ccccc3s2)cc1Cl | 2.96 µM (inactive) | 3.28 µM (inactive) | 6.78 µM (inactive) | 13.2 µM (inactive) | 4.9 µM (inactive) | 3 µM (inactive) |  | 16.5 µM (inactive) |  | 16.3 µM (inactive) | 11.5 µM (inactive) | 2.65 µM (inactive) | 14.1 µM (inactive) | 14.6 µM (inactive) |
| CSC(=S)N/N=C(\C)c1ccc(S(=O)(=O)N(C)c2ccccc2)cc1 | 29.1 µM (inactive) |  | > 100 µM (inactive) | 56.5 µM (inactive) | 22.9 µM (inactive) | 19 µM (inactive) | 20.1 µM (inactive) | 28.8 µM (inactive) | 48.3 µM (inactive) | 59.2 µM (inactive) | 41.9 µM (inactive) | 24.7 µM (inactive) | 33.7 µM (inactive) | 43.2 µM (inactive) |
| Cn1c2c(c3ccccc31)CC(=O)N1CCCC(C1)CC21OCCO1 (stereo not given) | > 100 µM (inactive) | > 100 µM (inactive) | > 100 µM (inactive) | > 100 µM (inactive) | > 100 µM (inactive) | > 100 µM (inactive) | > 100 µM (inactive) | > 100 µM (inactive) |  | > 100 µM (inactive) | > 100 µM (inactive) | > 100 µM (inactive) | > 100 µM (inactive) | > 100 µM (inactive) |
| OCC1OC(n2nc(-c3ccccc3)nc2-c2cnccn2)C(O)C(O)C1O (stereo not given) | > 100 µM (inactive) | > 100 µM (inactive) | > 100 µM (inactive) | > 100 µM (inactive) | > 100 µM (inactive) | > 100 µM (inactive) |  | > 100 µM (inactive) | > 100 µM (inactive) | > 100 µM (inactive) | > 100 µM (inactive) | > 100 µM (inactive) | > 100 µM (inactive) | > 100 µM (inactive) |
| NNC(=O)c1ccc(OCc2nc3ccccc3[nH]2)cc1 | > 100 µM (inactive) |  | 94.2 µM (inactive) |  | > 100 µM (inactive) | 14.8 µM (inactive) | > 100 µM (inactive) | > 100 µM (inactive) | > 100 µM (inactive) | > 100 µM (inactive) | > 100 µM (inactive) | > 100 µM (inactive) | 66.4 µM (inactive) | > 100 µM (inactive) |
| CC(=O)C1(C(=O)C(=[N+]=[N-])S(=O)(=O)c2ccccc2)CC1 | > 100 µM (inactive) | 40.2 µM (inactive) | > 100 µM (inactive) | > 100 µM (inactive) | > 100 µM (inactive) | 83.8 µM (inactive) | > 100 µM (inactive) | > 100 µM (inactive) | > 100 µM (inactive) |  | > 100 µM (inactive) | > 100 µM (inactive) | > 100 µM (inactive) | > 100 µM (inactive) |
| COC(=O)C[C@H](COCc1ccccc1)NC(=O)C[C@H](COCc1ccccc1)NC(=O)OC(C)(C)C | 24.2 µM (inactive) | > 100 µM (inactive) | 22.4 µM (inactive) | 21.6 µM (inactive) | 34 µM (inactive) | 56 µM (inactive) | > 100 µM (inactive) | 21.8 µM (inactive) | 34.7 µM (inactive) | 23.2 µM (inactive) | 55.8 µM (inactive) | 27.9 µM (inactive) |  | 36.6 µM (inactive) |
| OC1(c2ccc(Cl)cc2)c2c(ccc3c2OCO3)C2=NCCN21 (stereo not given) | 70.3 µM (inactive) | 37.9 µM (inactive) | 97.7 µM (inactive) | 58.3 µM (inactive) | 28.1 µM (inactive) | 40.1 µM (inactive) |  | > 100 µM (inactive) | 36.1 µM (inactive) | 68.1 µM (inactive) | 97.9 µM (inactive) | 44.9 µM (inactive) | 19.1 µM (inactive) | 19 µM (inactive) |
| O=c1[nH]nc(-c2ccccc2)n1/N=C/c1ccco1 | > 100 µM (inactive) | > 100 µM (inactive) | > 100 µM (inactive) | > 100 µM (inactive) | > 100 µM (inactive) | > 100 µM (inactive) |  | > 100 µM (inactive) | > 100 µM (inactive) | > 100 µM (inactive) | > 100 µM (inactive) | > 100 µM (inactive) | > 100 µM (inactive) | 83.2 µM (inactive) |
| Brc1cccc(C2(CCCC3(c4cccc(Br)n4)OCCO3)OCCO2)n1 | > 100 µM (inactive) |  |  | > 100 µM (inactive) | > 100 µM (inactive) | > 100 µM (inactive) | > 100 µM (inactive) | > 100 µM (inactive) | 39.2 µM (inactive) | > 100 µM (inactive) | > 100 µM (inactive) |  | > 100 µM (inactive) |  |
| CC(C)CNC(=O)Cn1c2c(c3ccccc31)CCCC2 | 49.7 µM (inactive) | 56.4 µM (inactive) |  | 54.3 µM (inactive) | 73.3 µM (inactive) | 0.743 µM (active) |  | 59.7 µM (inactive) | > 100 µM (inactive) | 23.7 µM (inactive) | > 100 µM (inactive) |  | > 100 µM (inactive) | 50.1 µM (inactive) |
| COc1ccc(OC)c2sc(N3C(=O)/C(=C/c4cccc([N+](=O)[O-])c4)N=C3c3ccccc3)nc12 | 47.1 µM (inactive) | 24.9 µM (inactive) | 68.4 µM (inactive) | 54.1 µM (inactive) | 23.9 µM (inactive) | 21.8 µM (inactive) |  | 56 µM (inactive) | 41.1 µM (inactive) | 50.6 µM (inactive) | 23.7 µM (inactive) | 32 µM (inactive) | 38.3 µM (inactive) | 36.4 µM (inactive) |
| CCOC(=O)CCC(NC(=O)OCc1ccccc1)C(=O)NC(CCC(=O)OCC)C(=O)NN (stereo not given) (Cbz-Glu(OEt)-Glu(OEt)-NHNH2; configuration not given here) | > 100 µM (inactive) |  |  | > 100 µM (inactive) |  | > 100 µM (inactive) | > 100 µM (inactive) |  |  |  | > 100 µM (inactive) | > 100 µM (inactive) | > 100 µM (inactive) | > 100 µM (inactive) |
| O=C1NC(=O)C(C(CC(=O)c2ccc(Cl)cc2)c2ccc(Cl)cc2)C(=O)N1 (stereo not given) | > 100 µM (inactive) | 42.2 µM (inactive) | > 100 µM (inactive) | > 100 µM (inactive) | 89.1 µM (inactive) | 74 µM (inactive) | > 100 µM (inactive) |  | 18 µM (inactive) |  | > 100 µM (inactive) | > 100 µM (inactive) | > 100 µM (inactive) | > 100 µM (inactive) |
| Cn1c(O)c(C2=Nc3ccccc3C2=O)c2ccccc21 | > 100 µM (inactive) | > 100 µM (inactive) | > 100 µM (inactive) | > 100 µM (inactive) | > 100 µM (inactive) | > 100 µM (inactive) | > 100 µM (inactive) | > 100 µM (inactive) |  | > 100 µM (inactive) | > 100 µM (inactive) | > 100 µM (inactive) | > 100 µM (inactive) | > 100 µM (inactive) |
| CCOC(=O)c1cc(C(=O)c2ccccc2)n2nc(-c3ccc(Cl)cc3)ccc12 | 15.4 µM (inactive) | > 100 µM (inactive) | 27.6 µM (inactive) | 19.5 µM (inactive) | 33.6 µM (inactive) | > 100 µM (inactive) | 20.4 µM (inactive) | 23.4 µM (inactive) |  | 17 µM (inactive) | 93.8 µM (inactive) | 23.1 µM (inactive) | 30.1 µM (inactive) | 17.3 µM (inactive) |
| CC(C)C(=O)OCC1OC(n2c(Br)nc3c(=O)[nH]c(N)nc32)C(OC(=O)C(C)C)C1OC(=O)C(C)C (stereo not given) | 35.6 µM (inactive) |  | > 100 µM (inactive) | > 100 µM (inactive) |  | 19.3 µM (inactive) | > 100 µM (inactive) | > 100 µM (inactive) |  | 30.3 µM (inactive) | 29.2 µM (inactive) |  | > 100 µM (inactive) | 31.8 µM (inactive) |
| COc1ccc(C2=C(OC(=O)N(C)C)c3cccn3-c3cc(Cl)ccc3S2)cc1 | > 10 µM (inactive) | 8.07 µM (inactive) | > 10 µM (inactive) | > 10 µM (inactive) | > 10 µM (inactive) | 7.89 µM (inactive) |  |  |  | > 10 µM (inactive) | > 10 µM (inactive) |  | > 10 µM (inactive) | > 10 µM (inactive) |
